In ChEMBL document CHEMBL3044628, “Okaramine C, a New Insecticidal Indole Alkaloid from Penicillium simplicissimum” (1991):

Test system: Bombyx mori
Assay: Insecticidal activity against po dosed larvae of Bombyx mori assessed per gram of diet
Assay type: functional

For CO[C@@H]1[C@]2(O)C(=O)N3/C=C\C(C)(C)c4[nH]c5ccccc5c4/C=C\3C(=O)N2[C@]23[C@H](C)C(C)(C)N2c2ccccc2[C@]13O [OKARAMINE B], the LD50 was 0.2 mg/kg.
C=CC(C)(C)c1[nH]c2ccccc2c1CC1NC(=O)[C@H]2C[C@@]3(O)c4ccccc4N(C(C)(C)C=C)[C@H]3N2C1=O (stereo partly drawn) [OKARAMINE C] gave an LD50 of 7 mg/kg.
For C=CC(C)(C)N1c2ccccc2[C@]2(O)C[C@@H]3C(=O)N4/C=C\C(C)(C)c5[nH]c6ccccc6c5/C=C\4C(=O)N3[C@H]12 [OKARAMINE A], the LD50 was 8 mg/kg.
